Measured values taken from patent US6365753B1, “Phthalimides and herbicide containing the same as active component” (Mitsubishi Chemical Corporation, priority 1998, dated 2002).

Legend:
Type in all cases: in vivo
Ipomoea purpurea = assay: Foliar treatment test (1) post-emergence application; settings: foliar treatment post-emergence at 1.0- to 2.0-leaf stage, 10 g/a active ingredient, 21st day from treatment; herbicidal index; further: ranges in brackets are in %
Experimental: (§1) Volcanic ash soil from a field was put in a resin-made pot having an area of 200 cm^2. After fertilization, the seeds of Brassica juncea, Ipomoea purpurea, Echinochloa crus-galli and Alopeculus aequalis were cast on the soil and uniformly covered with the soil.
(§2) Cultivation was continued in a greenhouse, and when the weeds reached the 1.0- to 2.0-leaf stage, a prescribed amount of the emulsifiable concentrate comprising the compound of the invention as an active ingredient which was prepared in Formulation Example 3 as diluted with water was sprayed uniformly to the weeds by means of a small-sized power pressure spray to give 10 g of the active ingredient per are.
(§3) Thereafter, cultivation was further continued in the greenhouse, and the herbicidal effect was examined on the 21st day from the treatment. The results obtained are shown in Table 6 (the compound numbers in Table 6 correspond to those in Tables 1 and 2). The herbicidal effect was evaluated based on the same criteria as in Test Example 1.

Brassica juncea [1] = assay: as above; settings: foliar treatment post-emergence at 1.0- to 2.0-leaf stage, 10 g/a active ingredient, 21st day from treatment; herbicidal index
Experimental: as §1, §2, §3

Echinochloa crus-galli [2] = assay: as above; settings: foliar treatment post-emergence at 1.0- to 2.0-leaf stage, 10 g/a active ingredient, 21st day from treatment; herbicidal index
Experimental: as §1, §2, §3

Alopeculus aequalis = assay: as above; settings: foliar treatment post-emergence at 1.0- to 2.0-leaf stage, 10 g/a active ingredient, 21st day from treatment; herbicidal index; further: ranges in brackets are in %
Experimental: as §1, §2, §3

Monochoria vaginalis = assay: Submerged treatment test; settings: 10 g/a active ingredient, treated 5th day from sowing, examined on the 2.8th day from treatment, herbicidal index; further: ranges in brackets are in %
Experimental: (§4) Alluvial soil from a paddy field was put in a resin-made pot having an area of 200 cm^2. After fertilization, an adequate amount of water was added, and the soil was puddled and leveled. Seeds of Echinochloa crus-galli, Monochoria vaginalis, Rotala indica and Scirpus juncoides were sowed within a layer 0.5 cm below the surface of the soil. Water was poured onto the soil to keep a water depth of 3.5 cm.
(§5) On the 5th day from the sowing, the emulsifiable concentrate containing the compound of the invention as an active ingredient which was prepared in Formulation Example 3 was diluted with water. A prescribed amount of the diluted composition was dropped to the water so as to give 10 g of the active ingredient per are.
(§6) Cultivation was continued in a greenhouse, and the herbicidal effect was examined on the […] from the treatment. The results obtained are shown in Table 4 (the compound numbers in Table 4 correspond to those in Tables 1 and 2). The herbicidal effect was evaluated in terms of herbicidal index based on Y(%) obtained from equation:
(§7) y=[1−(Weight of weeds above the ground in a treated pot)/(Weight of weeds above the ground in a non-treated pot)]×100 (%)

Rotala indica = assay: Submerged treatment test; settings: 10 g/a active ingredient, treated 5th day from sowing, examined on the 2.8th day from treatment, herbicidal index; further: ranges in brackets are in %
Experimental: as §4, §5, §6, §7

Echinochloa crus-galli [3] = assay: Submerged treatment test; settings: 10 g/a active ingredient, treated 5th day from sowing, examined on the 2.8th day from treatment, herbicidal index; further: ranges in brackets are in %
Experimental: as §4, §5, §6, §7

Scirpus juncoides = assay: Submerged treatment test; settings: 10 g/a active ingredient, treated 5th day from sowing, examined on the 2.8th day from treatment, herbicidal index; further: ranges in brackets are in %
Experimental: as §4, §5, §6, §7

Galium spurium = assay: Foliar treatment test (3) post emergence application; settings: 3.0 to 4.0-leaf stage, 0.125% X-77, 21st day, index
Experimental: (§8) Volcanic ash soil from a field was put in a resin-made pot having an area of 200 cm^2. After fertilization, the seeds of Galim spurium, Brassica juncea, and wheat were cast on the soil and covered with the soil uniformly. Cultivation was continued in a greenhouse until the plants reached to the 3.0 to 4.0-leaf stage.
(§9) The emulsifiable concentrate comprising compound No. 5 of the present invention, comparative compound (B) or comparative compound (C) as an active ingredient which was prepared in accordance with Formulation Example 3 was diluted with water containing 0.125% of a spreading agent X-77 (trade name, Valent USA Co.) so that a spray of 250 L/ha might give a prescribed amount of the active ingredient. The diluted composition was uniformly sprayed to the Galium spurium plant, the Brassica juncea plant, and the wheat plant by means of a small-sized power pressure spray.
(§10) Thereafter, cultivation was continued in the greenhouse, and the herbicidal effect and the injury to the crop were examined on the 21st day from the treatment. The herbicidal effect and the injury to the crop were evaluated on the same criteria as in Test Example 4.

Brassica juncea [4] = assay: as above; settings: 3.0 to 4.0-leaf stage, 0.125% X-77, 21st day, index
Experimental: as §8, §9, §10

wheat = assay: Foliar treatment test (3) post emergence application, crop injury; settings: 3.0 to 4.0-leaf stage, 0.125% X-77, 21st day, index
Experimental: as §8, §9, §10

Digitaria ciliaris = assay: Soil treatment test pre-emergence application; settings: 10 g/a active ingredient, 28th day from treatment, herbicidal index; further: ranges in brackets are in %
Experimental: (§11) Volcanic ash soil from a field was put in a resin-made pot having an area of 200 cm^2. After fertilization, soil previously mixed uniformly with the seeds of Digitaria ciliaris, Setaria viridis, Chenopodium album and Polygonum lapathifolium was scattered on the soil. The emulsifiable concentrate comprising the compound of the invention as an active ingredient which was obtained in Formulation Example 3 was diluted with water, and a prescribed amount of the diluted composition was sprayed uniformly to the surface of the soil by means of a small-sized power pressure spray to give 10 g of the active ingredient per are.
as §3, with “was” for “was further”, “in a” for “in the”, “the 28th” for “the 21st”, “Table 5” for “Table 6”

Chenopodium album = assay: Soil treatment test pre-emergence application; settings: 10 g/a active ingredient, 28th day from treatment, herbicidal index; further: ranges in brackets are in %
Experimental: as §11
as §3, with “was” for “was further”, “in a” for “in the”, “the 28th” for “the 21st”, “Table 5” for “Table 6”

Polygonum lapathifolium = assay: Soil treatment test pre-emergence application; settings: 10 g/a active ingredient, 28th day from treatment, herbicidal index; further: ranges in brackets are in %
Experimental: as §11
as §3, with “was” for “was further”, “in a” for “in the”, “the 28th” for “the 21st”, “Table 5” for “Table 6”

Setaria viridis = assay: Soil treatment test pre-emergence application; settings: 10 g/a active ingredient, 28th day from treatment, herbicidal index; further: ranges in brackets are in %
Experimental: as §11
as §3, with “was” for “was further”, “in a” for “in the”, “the 28th” for “the 21st”, “Table 5” for “Table 6”
Wherever Herbicidal Effect Echinochloa crus-galli is given: ranges in brackets are in %.

SMILES: CCOC(=O)C(Cl)Cc1cc(N2C(=O)c3ccccc3C2=O)c(F)cc1Cl (centres unmarked) [Compound 5, ethyl 2-chloro-3-(2-chloro-4-fluoro-5-phthalimidophenyl)propionate]
- Herbicidal Effect Ipompoea-purpurea (Ipomoea purpurea): 5 (91-100)
- Herbicidal Effect Brassica juncea (Brassica juncea [1]): 5 (91-100)
- Herbicidal Effect Echinochloa crus-galli (Echinochloa crus-galli [2]): 3 (51-70)
- Herbicidal Effect Alopeculus sequalis (Alopeculus aequalis): 1 (6-30)
- Herbicidal Effect Monochoria vaginalis (Monochoria vaginalis): 5 (91-100)
- Herbicidal Effect Rotala indica (Rotala indica): 5 (91-100)
- Herbicidal Effect Echinochloa crus-galli (Echinochloa crus-galli [3]): 4 (71-90)
- Herbicidal Effect Scirpus juncoides (Scirpus juncoides): 4 (71-90)
- Herbicidal Effect Galium spurium (Galium spurium; 12.5 ga.i./ha): 10 (100)
- Herbicidal Effect Galium spurium (Galium spurium; 25.0 ga.i./ha): 10 (100)
- Herbicidal Effect Galium spurium (Galium spurium; 50.0 ga.i./ha): 10 (100)
- Herbicidal Effect Brassica juncea (Brassica juncea [4]; 12.5 ga.i./ha): 10 (100)
- Herbicidal Effect Brassica juncea (Brassica juncea [4]; 25.0 ga.i./ha): 10 (100)
- Herbicidal Effect Brassica juncea (Brassica juncea [4]; 50.0 ga.i./ha): 10 (100)
- Crop Injury Wheat (wheat; 12.5 ga.i./ha): 0 (0)
- Crop Injury Wheat (wheat; 25.0 ga.i./ha): 0 (0)
- Crop Injury Wheat (wheat; 50.0 ga.i./ha): 1 (1-9)

SMILES: CCCCOC(=O)C(Cl)Cc1cc(N2C(=O)c3ccccc3C2=O)c(F)cc1Cl (centres unmarked) [Compound 8]
- Herbicidal Effect Ipompoea-purpurea (Ipomoea purpurea): 5 (91-100)
- Herbicidal Effect Brassica juncea (Brassica juncea [1]): 5 (91-100)
- Herbicidal Effect Echinochloa crus-galli (Echinochloa crus-galli [2]): 1 (6-30)
- Herbicidal Effect Alopeculus sequalis (Alopeculus aequalis): 1 (6-30)
- Herbicidal Effect Monochoria vaginalis (Monochoria vaginalis): 5 (91-100)
- Herbicidal Effect Rotala indica (Rotala indica): 5 (91-100)
- Herbicidal Effect Echinochloa crus-galli (Echinochloa crus-galli [3]): 5 (91-100)
- Herbicidal Effect Scirpus juncoides (Scirpus juncoides): 5 (91-100)

SMILES: O=C(OC1CCCC1)C(Cl)Cc1cc(N2C(=O)c3ccccc3C2=O)c(F)cc1Cl (centres unmarked) [Compound 9]
- Herbicidal Effect Ipompoea-purpurea (Ipomoea purpurea): 5 (91-100)
- Herbicidal Effect Brassica juncea (Brassica juncea [1]): 5 (91-100)
- Herbicidal Effect Echinochloa crus-galli (Echinochloa crus-galli [2]): 2 (31-50)
- Herbicidal Effect Alopeculus sequalis (Alopeculus aequalis): 1 (6-30)
- Herbicidal Effect Monochoria vaginalis (Monochoria vaginalis): 5 (91-100)
- Herbicidal Effect Rotala indica (Rotala indica): 5 (91-100)
- Herbicidal Effect Echinochloa crus-galli (Echinochloa crus-galli [3]): 5 (91-100)
- Herbicidal Effect Scirpus juncoides (Scirpus juncoides): 5 (91-100)

SMILES: CCCNC(=O)C(Cl)Cc1cc(N2C(=O)c3ccccc3C2=O)c(F)cc1Cl (centres unmarked) [Compound 10, 2-Chloro-3-(2-chloro-4-fluoro-5-phthalimidophenyl)-N-propylpropionamide]
- Herbicidal Effect Ipompoea-purpurea (Ipomoea purpurea): 5 (91-100)
- Herbicidal Effect Brassica juncea (Brassica juncea [1]): 5 (91-100)
- Herbicidal Effect Echinochloa crus-galli (Echinochloa crus-galli [2]): 4 (71-90)
- Herbicidal Effect Alopeculus sequalis (Alopeculus aequalis): 3 (51-70)

SMILES: CC(C)CNC(=O)C(Cl)Cc1cc(N2C(=O)c3ccccc3C2=O)c(F)cc1Cl (centres unmarked) [Compound 11]
- Herbicidal Effect Ipompoea-purpurea (Ipomoea purpurea): 5 (91-100)
- Herbicidal Effect Brassica juncea (Brassica juncea [1]): 5 (91-100)
- Herbicidal Effect Echinochloa crus-galli (Echinochloa crus-galli [2]): 4 (71-90)
- Herbicidal Effect Alopeculus sequalis (Alopeculus aequalis): 4 (71-90)
- Herbicidal Effect Digitaria ciliaris (Digitaria ciliaris): 4 (71-90)
- Herbicidal Effect Chenopodium album (Chenopodium album): 5 (91-100)
- Herbicidal Effect Polygonum lapathifolium (Polygonum lapathifolium): 5 (91-100)
- Herbicidal Effect Setaria viridis (Setaria viridis): 4 (71-90)

SMILES: COC(=O)C=Cc1cc(N2C(=O)c3ccccc3C2=O)c(F)cc1Cl [Compound 16]
- Herbicidal Effect Ipompoea-purpurea (Ipomoea purpurea): 5 (91-100)
- Herbicidal Effect Brassica juncea (Brassica juncea [1]): 5 (91-100)
- Herbicidal Effect Echinochloa crus-galli (Echinochloa crus-galli [2]): 3 (51-70)
- Herbicidal Effect Alopeculus sequalis (Alopeculus aequalis): 1 (6-30)

SMILES: CCOC(=O)/C=C/c1cc(N2C(=O)c3ccccc3C2=O)c(F)cc1Cl [Compound 17, Ethyl 3-(2-Chloro-4-fluoro-5-phthalimidophenyl)acrylate]
- Herbicidal Effect Ipompoea-purpurea (Ipomoea purpurea): 5 (91-100)
- Herbicidal Effect Brassica juncea (Brassica juncea [1]): 5 (91-100)
- Herbicidal Effect Echinochloa crus-galli (Echinochloa crus-galli [2]): 1 (6-30)
- Herbicidal Effect Alopeculus sequalis (Alopeculus aequalis): 1 (6-30)
